Results as given in paper PMC6930660, “Synthesis and Comparative Structure–Activity Study of Carbohydrate-Based Phenolic Compounds as α-Glucosidase Inhibitors and Antioxidants” (Molecules, 2019).

Columns and labels:
[1] = dissolution of the sample in water for the α-glucosidase assay; type: physicochemical; set-up: key: −: Did not dissolve in water; conditions: samples prepared in H2O
Procedure: (§1) The α-glucosidase inhibitory activity of all samples was assayed utilizing a commercially available FUJIFILM α-glucosidase inhibitory activity assay kit. In total, 25 μL of each sample (25–2000 μg/mL in H2O ) or acarbose (0.5–8 μg/mL in H2O ), 50 μL of 18.5 mM maltose diluted in maleic anhydride buffer (100 mM, pH = 6.0), and 25 μL of the rat α-glucosidase solution were incubated in a micro-tube at 37 °C for 30 min. Subsequently, 400 μL of purified water was added to the solution and the reaction mixture was boiled for 3 min to deactivate α-glucosidase. The generated glucose was measured by LabAssay™ glucose (mutarotase-GOD method). In total, 100 μL of the reaction solution and 150 μL of the coloring solution were incubated in 96-well plates at 37 °C for 10 min, and the absorbance was recorded at 505 nm using a microplate reader (Bio-Rad, Model 680). The inhibition percentage was calculated using the following Equation: Inhibition percentage (%) = 1−As−Ab/Ac ×100 where As is the absorbance of the analyzed sample, Ab is the absorbance of the blank (immediate deactivation), and Ac is the absorbance of the control ([…]). Acarbose was used as the positive control.

[2] = DPPH radical scavenging assay (antioxidant activity); conditions: for EC50: MES-NaOH buffer pH 6.0, 15 min in the dark
Procedure: The antioxidant activity was assessed by employing the 2,2-diphenyl-1-picrylhydrazyl (DPPH) radical scavenging assay, according to the previously published method. In total, 100 μL of each sample (1000–10 μg/mL in 50%EtOH/ H2O ) or trolox (160–0 μM in 50% EtOH/ H2O ), and 50 μL of 2-(N-morpholino)ethanesulfonic acid (MES)-NaOH buffer (200 mM, pH = 6.0), and 50 μL of an 800 μM DPPH diluted in 99.5% EtOH were mixed in 96-well plates. Following shaking the microplate for 15 min in the dark, the absorbance was recorded at 520 nm using a microplate reader (Bio-Rad, Model 680). Effective percentages (%) were calculated as follows: Effective percentages (%) = 1−As/Ab ×100 where As is the absorbance of the sample and Ab is the absorbance of the blank (without samples, 50% EtOH/ H2O solution was used instead).
The trolox-equivalent (sample-mol/trolox-mol) was calculated as follows: Trolox−equivalent (mol−trolox/mol−sample) = Ss/St where Ss is the slope of the sample and St is the slope of trolox.

rat α-glucosidase = test: α-glucosidase inhibitory activity assay (FUJIFILM kit, maltose substrate, glucose measured by mutarotase-GOD method); type: biochemical; conditions: rat α-glucosidase, 18.5 mM maltose, maleic anhydride buffer pH 6.0, 37 °C, 30 min; mean ± S.D. of n = 2
Procedure: as §1

Row | Structure (SMILES) | solubility in water (no α-glucosidase IC50 obtained) [1] | antioxidant activity (in words) [2] | EC50 ([2]; mean ± S.D. of n = 3) [µM] | IC50 (rat α-glucosidase) [µM] | Antioxidant Trolox-eq (TE) ([2]; trolox-equivalent (mol-trolox/mol-sample) = slope of sample / slope of trolox, mean ± S.D. of n = 3)
1 | O=C(OC[C@H]1OC[C@H](OC(=O)c2ccc(O)cc2)[C@@H](OC(=O)c2ccc(O)cc2)[C@@H]1OC(=O)c1ccc(O)cc1)c1ccc(O)cc1 [Compound 58, 1,5-Anhydro-2,3,4,6-tetrakis-O-(4-hydroxybenzoyl)-D-glucitol] | −^d | no antioxidant activity was observed | > 78 | – | –
2 | O=C(OC[C@H]1OC[C@H](OC(=O)c2cccc(O)c2)[C@@H](OC(=O)c2cccc(O)c2)[C@@H]1OC(=O)c1cccc(O)c1)c1cccc(O)c1 [Compound 57, 1,5-Anhydro-2,3,4,6-tetrakis-O-(3-hydroxybenzoyl)-D-glucitol] | −^d | no antioxidant activity was observed | > 78 | – | –
3 | O=C(O[C@H]1[C@H](O)[C@@H](CO)OC[C@@H]1O)c1cc(O)c(O)c(O)c1 [Compound 32, 1,5-Anhydro-3-O-(3′,4′,5′-trihydroxybenzoyl)-D-glucitol] | – | – | 20.5 ± 2.05 | 138 ± 1.5 | 2.38 ± 0.24
